Patent US20120214743A1, “ITCH SUPPRESSANT” (University of Occupational and Environmental Health, Japan, priority 2009, published 2012)
Ends that are not written are not given here. * marks the point of attachment. SO3H = O=S(=O)(O)*

Columns and labels:
[1] = tested on: CCK2R; test: Western blotting of CCK2R in ICR mouse keratinocytes incubated with SP; type: cell-based; conditions: exposed to SP for 5 or 6 hours, FIG. 2a
Experimental: (§1) Keratinocytes from ICR mice were stimulated with SP (10^−8 M) in six-well plates (Corning Glass Works) for 0.5-24 hours, harvested with a rubber policeman, and subjected to extraction with RIPA buffer (Wako, Osaka, Japan; Tris-HCl (pH8.0), 150 mm sodium chloride, 0.5% (wt/vol) sodium deoxycholate, 0.1% (wt/vol) SDS, and 1.0% (wt/vol) NP-40 substitute). Protein samples (20 μg) were separated by 8% SDS-polyacrylamide gel electrophoresis and electroblotted onto polyvinylidene difluoride membranes for 2 hours at 180 mA. After blocking with skim milk solution, the membranes were incubated with rabbit anti-mouse CCK1R (SC-33220; 1:1,000, Santa Cruz, Santa Cruz, Calif.) polyclonal antibodies,or CCK2R (SC-33221; 1:1,000, Santa Cruz) polyclonal antibodies, and the reaction was detected with horseradish peroxidase—conjugated goat anti-rabbit IgG (1:3,000, Bio-Rad, Hercules, Calif.). […] Bands were quantified by densitometry with the help of a CS Analyzer version 2.0 (ATTO, Tokyo, Japan). […]
(§2) To determine the effect of SP on keratinocytes, ICR mouse keratinocytes were incubated with SP for 30 min to 24 hours and the expression of CCK2R and CCK1R were analyzed by western blotting. CCK2R was detected with antibodies as 78 kDa band, and increased in keratinocytes exposed to SP for 5 or 6 hours (FIG. 2a). […]

[2] = tested on: CCK1R; test: Western blotting of CCK1R in ICR mouse keratinocytes incubated with SP; type: cell-based; conditions: SP 30 min to 24 hours, FIG. 2b
Experimental: as §1, §2

[3] = tested on: normal human keratinocytes (NHEKs); test: DNA microarray of mRNA expression in stimulated normal human keratinocytes; type: cell-based; conditions: histamine 10 μM/mL, SLIGRL-NH2 100 nM
Experimental: For DNA microarray analysis, total RNA was extracted from NHEKs with the RNeasy Mini Kit (QIAGEN, Valencia, Calif.). Images obtained from a plate reader were analyzed with DNASIS Array (DNA CHIP RESERCH Inc., Hitachi Software Engineering, Tokyo, Japan), according to the manufacturer's instructions.
The values are log2 (mRNA expression level of each stimulated sample/expression level of the control).

[4] = tested on: ICR mice; test: SP-induced scratch behavior in ICR mice; type: in vivo, mouse; conditions: transdermal, 0.5 nmol/site in acetone/olive (3:1), tape-stripped skin, 3-4 minutes before SP 100 nmol/site intradermal; FIG. 3
Experimental: Since it is considered that external administration of CCK affects keratinocytes, at first, CCK2R agonist was administered transdermally (applying the solution prepared using acetone-olive (3:1)) to itch-related behavior model (ICR mice administered intradermally with SP (100 nmol)).
The hair was clipped over the rostral part of the murine back one or two days prior to experiment. Before behavioral recording, each mouse (4 animals per observation) was put into an acrylic cage (18×23×11 cm) for at least 1 hr for acclamation. An intradermal injection of SP (100 nmol in normal saline per site) induces scratching of the skin around the injected site by the hind paws in mice. CCKs were topically applied in the two ways, percutaenous application and intradermal injection. For percutaneous application, the shaved back skin was stripped with Scotch tape (3M) 6 times the day before the experiment. The mice were painted on the clipped back with 20 μL CCK (0.5 nmol/site) in acetone/olive (3:1) 3-4 minutes before SP injection (100 nmol/site). […] Immediately after treatment, the animals were put back into the same cage and their behavior was videotaped using a digital video camera for 40 minutes. The frequency of scratch toward the injected site by hind paws was counted for the first 20 minutes with the video.

Compound | ACTL7B mRNA, log2 (expression level of stimulated sample/expression level of the control) ([3]; NHEKs, Ca 0.6 mM, SP 10^−6 M) | ANKRD6 mRNA, log2 (expression level of stimulated sample/expression level of the control) ([3]; NHEKs, Ca 0.6 mM, SP 10^−6 M) | BUB1B mRNA, log2 (expression level of stimulated sample/expression level of the control) ([3]; NHEKs, Ca 0.6 mM, SP 10^−6 M) | CCK2R mRNA, log2 (expression level of stimulated sample/expression level of the control) ([3]; NHEKs, Ca 0.6 mM, SP 10^−6 M) | FCN3 mRNA, log2 (expression level of stimulated sample/expression level of the control) ([3]; NHEKs, Ca 0.6 mM, SP 10^−6 M) | MAP3K1 mRNA, log2 (expression level of stimulated sample/expression level of the control) ([3]; NHEKs, Ca 0.6 mM, SP 10^−6 M) | MMP9 mRNA, log2 (expression level of stimulated sample/expression level of the control) ([3]; NHEKs, Ca 0.6 mM, SP 10^−6 M) | PDE7B mRNA, log2 (expression level of stimulated sample/expression level of the control) ([3]; NHEKs, Ca 0.6 mM, SP 10^−6 M) | PTN mRNA, log2 (expression level of stimulated sample/expression level of the control) ([3]; NHEKs, Ca 0.6 mM, SP 10^−6 M) | SERPINI2 mRNA, log2 (expression level of stimulated sample/expression level of the control) ([3]; NHEKs, Ca 0.6 mM, SP 10^−6 M) | scratch behavior (frequency of scratch, first 20 minutes) [4] | also measured
Substance P [SP] | 0.99 log2 | 3.20 log2 | 3.06 log2 | 8.67 log2 | 4.50 log2 | 1.06 log2 | 1.12 log2 | 1.02 log2 | 4.04 log2 | 1.00 log2 | – | CCK2R expression (78 kDa band) in keratinocytes exposed to SP [1]: increased; CCK1R expression in keratinocytes exposed to SP [2]: not augmented; AR mRNA, log2 (expression level of stimulated sample/expression level of the control) ([3]; NHEKs, Ca 0.6 mM, SP 10^−6 M): 0.99 log2; ARG1 mRNA, log2 (expression level of stimulated sample/expression level of the control) ([3]; NHEKs, Ca 0.6 mM, SP 10^−6 M): 1.69 log2; CKM mRNA, log2 (expression level of stimulated sample/expression level of the control) ([3]; NHEKs, Ca 0.6 mM, SP 10^−6 M): 1.72 log2; CLEC7A mRNA, log2 (expression level of stimulated sample/expression level of the control) ([3]; NHEKs, Ca 0.6 mM, SP 10^−6 M): 1.16 log2; CYP17A1 mRNA, log2 (expression level of stimulated sample/expression level of the control) ([3]; NHEKs, Ca 0.6 mM, SP 10^−6 M): 1.40 log2; F10 mRNA, log2 (expression level of stimulated sample/expression level of the control) ([3]; NHEKs, Ca 0.6 mM, SP 10^−6 M): 1.74 log2; ICAM1 mRNA, log2 (expression level of stimulated sample/expression level of the control) ([3]; NHEKs, Ca 0.6 mM, SP 10^−6 M): 1.16 log2; NDRG4 mRNA, log2 (expression level of stimulated sample/expression level of the control) ([3]; NHEKs, Ca 0.6 mM, SP 10^−6 M): 1.00 log2; RASSF7 mRNA, log2 (expression level of stimulated sample/expression level of the control) ([3]; NHEKs, Ca 0.6 mM, SP 10^−6 M): 1.82 log2; SV2B mRNA, log2 (expression level of stimulated sample/expression level of the control) ([3]; NHEKs, Ca 0.6 mM, SP 10^−6 M): 1.54 log2
Ser-Leu-Ile-Gly-Arg-Leu-NH2 (SLIGRL-NH2) [synthetic agonist of PAR-2] | 0.84 log2 | −0.17 log2 | 0.52 log2 | 0.06 log2 | −0.62 log2 | 0.64 log2 | 0.11 log2 | 1.00 log2 | 0.12 log2 | 0.72 log2 | – | ARG1 mRNA, log2 (expression level of stimulated sample/expression level of the control) ([3]; NHEKs, Ca 0.6 mM, SP 10^−6 M): 0.71 log2; CYP17A1 mRNA, log2 (expression level of stimulated sample/expression level of the control) ([3]; NHEKs, Ca 0.6 mM, SP 10^−6 M): 0.92 log2; changes in the expression levels of CCK2R in stimulated NHEKs [3]: no significant changes
NCCc1c[nH]cn1 [histamine, Histamine] | 0.63 log2 | 0.00 log2 | −1.09 log2 | −0.01 log2 | −0.23 log2 | 0.88 log2 | 4.02 log2 | 0.12 log2 | −0.14 log2 | 0.38 log2 | – | CKM mRNA, log2 (expression level of stimulated sample/expression level of the control) ([3]; NHEKs, Ca 0.6 mM, SP 10^−6 M): 1.04 log2; F10 mRNA, log2 (expression level of stimulated sample/expression level of the control) ([3]; NHEKs, Ca 0.6 mM, SP 10^−6 M): 1.36 log2; NDRG4 mRNA, log2 (expression level of stimulated sample/expression level of the control) ([3]; NHEKs, Ca 0.6 mM, SP 10^−6 M): 1.59 log2; changes in the expression levels of CCK2R in stimulated NHEKs [3]: no significant changes
Tyr(SO3H)-Met-Gly-Trp-Met-Asp-Phe-NH2 (Y(SO3H)MGWMDF-NH2; N-terminus assumed; SMILES CSCC[C@H](NC(=O)[C@H](Cc1c[nH]c2ccccc12)NC(=O)CNC(=O)[C@H](CCSC)NC(=O)[C@@H](N)Cc1ccc(OS(=O)(=O)O)cc1)C(=O)N[C@@H](CC(=O)O)C(=O)N[C@@H](Cc1ccccc1)C(N)=O) [CCK7S, natural type cholecystokinin, tyrosine at seventh position from C-terminal sulfated] | – | – | – | – | – | – | – | – | – | – | significant reduction | –
Asp-Tyr-Met-Gly-Trp-Met-Asp-Phe-NH2 (DYMGWMDF-NH2) [CCK8, cholecystokinin analogue in which the tyrosine is not sulfated] | – | – | – | – | – | – | – | – | – | – | no significant reduction | –
Met-Gly-Trp-Met-Asp-Phe-NH2 (MGWMDF-NH2) [CCK6, cholecystokinin analogue without the tyrosine] | – | – | – | – | – | – | – | – | – | – | no significant reduction | –
Tyr-Met-Gly-Trp-Met-Asp-Phe-NH2 (YMGWMDF-NH2) [CCK7, cholecystokinin analogue in which the tyrosine is not sulfated] | – | – | – | – | – | – | – | – | – | – | no significant reduction | –
